For 7 molecules, IC50 results are on record in US11260049B2, “TRPV4 antagonists” (GlaxoSmithKline Intellectual Property (No. 2) Limited, priority 2016, dated 2022).

SMILES strings stand for the structures.

Sequence of human TRPV4 (Q9HBA0 whole entry): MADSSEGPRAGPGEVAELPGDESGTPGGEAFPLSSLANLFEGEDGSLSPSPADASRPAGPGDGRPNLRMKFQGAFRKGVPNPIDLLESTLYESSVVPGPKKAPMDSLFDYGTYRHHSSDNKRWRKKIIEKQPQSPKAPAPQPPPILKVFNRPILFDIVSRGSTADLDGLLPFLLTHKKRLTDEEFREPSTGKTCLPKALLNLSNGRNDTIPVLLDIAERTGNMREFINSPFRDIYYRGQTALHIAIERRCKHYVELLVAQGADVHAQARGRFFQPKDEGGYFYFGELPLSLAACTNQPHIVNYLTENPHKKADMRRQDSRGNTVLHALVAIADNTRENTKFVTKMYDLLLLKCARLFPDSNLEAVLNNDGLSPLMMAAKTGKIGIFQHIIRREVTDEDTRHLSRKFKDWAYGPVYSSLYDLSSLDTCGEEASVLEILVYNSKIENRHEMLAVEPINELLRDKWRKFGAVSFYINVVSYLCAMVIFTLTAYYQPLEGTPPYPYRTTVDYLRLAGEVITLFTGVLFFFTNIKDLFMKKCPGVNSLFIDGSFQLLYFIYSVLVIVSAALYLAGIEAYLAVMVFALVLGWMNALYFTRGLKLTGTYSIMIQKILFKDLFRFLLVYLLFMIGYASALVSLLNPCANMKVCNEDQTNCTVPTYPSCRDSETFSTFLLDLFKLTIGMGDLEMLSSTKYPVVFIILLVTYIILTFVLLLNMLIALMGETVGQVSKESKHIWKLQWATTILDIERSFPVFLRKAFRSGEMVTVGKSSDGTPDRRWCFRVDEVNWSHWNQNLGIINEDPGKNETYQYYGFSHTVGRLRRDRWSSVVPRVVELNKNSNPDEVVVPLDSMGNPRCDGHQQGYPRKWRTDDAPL

The target in the assay is human TRPV4 (Homo sapiens (Human), UniProt Q9HBA0). Nature of the assay: FLIPR assay for hTRPV4 expressed in BHK cells. Type of assay: cell-based. Particulars: inhibition of Agonist Compound (EC80)-induced calcium signal; BHK/AC9 cells expressing human TRPV4; read-out: IC50. An outline of the steps:
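BHK/AC9 cells transduced with BacMam human TRPV4 (MOI 78), 15,000 cells/well, cultured 24 h at 37 °C. Loaded with 2 μM Fluo-4 AM and 500 μM Brilliant Black in HBSS for 1–1.5 h at room temperature in the dark. Intracellular calcium influx monitored by fluorescence.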
As a reminder, the IC50 is the concentration at which inhibition is half-maximal. Turning to `N#Cc1ccc(S(=O)(=O)N2C[C@H](S(=O)(=O)c3nccs3)[C@](O)(CO)C2)c(Cl)c1` [Example 68, 3-chloro-4-(((3R,4S)-3-hydroxy-3-(hydroxymethyl)-4-(thiazol-2-ylsulfonyl)pyrrolidin-1-yl)sulfonyl)benzonitrile], the concentration for half-maximal inhibition (IC50) was 10 to 100 nM.

On to `N#Cc1ccc(S(=O)(=O)N2C[C@H](S(=O)(=O)c3ccc(Cl)cc3)[C@](O)(CO)C2)c(F)c1` [Example 21, 4-(((3R,4S)-4-((4-chlorophenyl)sulfonyl)-3-hydroxy-3-(hydroxymethyl)pyrrolidin-1-yl)sulfonyl)-3-fluorobenzonitrile], for which the IC50 is 10 to 100 nM.

With `O=S(=O)(c1ccc(Cl)cc1)[C@H]1CN(S(=O)(=O)c2ccc(C(F)F)cc2Cl)C[C@@]1(O)CO` [Example 37, (3R,4S)-1-((2-chloro-4-(difluoromethyl)phenyl)sulfonyl)-4-((4-chlorophenyl)sulfonyl)-3-(hydroxymethyl)pyrrolidin-3-ol], the IC50 is 10 to 100 nM.

Take `N#Cc1ccc(S(=O)(=O)N2C[C@H](S(=O)(=O)c3ccc(Cl)cc3)[C@](O)(CN)C2)cc1` [Example 126, 4-(((3S,4S)-3-(aminomethyl)-4-((4-chlorophenyl)sulfonyl)-3-hydroxypyrrolidin-1-yl)sulfonyl)benzonitrile]: the IC50 is 10 to 100 nM.

In the case of `O=S(=O)(c1ccc(Cl)c(F)c1)[C@H]1CN(S(=O)(=O)c2ccc(C(F)(F)F)cc2Cl)C[C@]1(O)CO` [Example 78, (3S,4S)-4-((4-chloro-3-fluorophenyl)sulfonyl)-1-((2-chloro-4-(trifluoromethyl)phenyl)sulfonyl)-3-(hydroxymethyl)pyrrolidin-3-ol], the IC50 is 10 to 100 nM.

Consider `N#Cc1ccc(S(=O)(=O)N2C[C@H](S(=O)(=O)c3ccc(C#N)c(F)c3)[C@@](O)(CO)C2)c(Cl)c1` [Example 3, 4-(((3S,4S)-1-((2-chloro-4-cyanophenyl)sulfonyl)-4-hydroxy-4-(hydroxymethyl)pyrrolidin-3-yl)sulfonyl)-2-fluorobenzonitrile], for which the IC50 is 0.1 to 10 nM.

Turning to `N#Cc1ccc(S(=O)(=O)[C@H]2CN(S(=O)(=O)c3ccc(F)cc3C(F)(F)F)C[C@@]2(O)CO)cc1` [Example 29, 4-(((3S,4R)-1-((4-fluoro-2-(trifluoromethyl)phenyl)sulfonyl)-4-hydroxy-4-(hydroxymethyl)pyrrolidin-3-yl)sulfonyl)benzonitrile], the IC50 is 0.1 to 10 nM.
